This note sets out measurements from patent publication US11939294B1 (priority 2023, dated 2024).

The subject of this assay is multidrug-resistant (MDR) strains of Mycobacterium tuberculosis. Put plainly: microbe, parasite or virus in culture. The class given is cell-based. The conditions noted are these: 192 h, read-out: MIC (μg/mL) MDR-TB, MDR-TB: resistant at least to isoniazid and rifampicin, REMA, 8 days incubation at 37° C.

As for `Cc1cc(C)c[n+](CC(=O)c2ccc(F)cc2)c1.[Br-]` [Compound 3d, 1-(2-(4-Fluorophenyl)-2-oxoethyl)-3,5-dimethylpyridin-1-ium bromide], the MIC was around 8 µg/mL.
